Assay results published in ChEMBL document CHEMBL4376864, “Binding Loop Substitutions in the Cyclic Peptide SFTI-1 Generate Potent and Selective Chymase Inhibitors” (J Med Chem, 2020).
pIC50, pKi: −log10 of the molar value. Bridge positions count the residues as written; N and C are the ends. Square brackets hold non-standard residues; d marks the D form. Peptide text beside a SMILES is read from it. Phe(4-Cl) = N[C@@H](Cc1ccc(Cl)cc1)C(=O)O; Phe(4-I) = N[C@@H](Cc1ccc(I)cc1)C(=O)O; Phe(4-Me) = Cc1ccc(C[C@H](N)C(=O)O)cc1

Experiments:
Kallikrein-7 = Kallikrein-7 (Homo sapiens, UniProt P49862); assay: Inhibition of recombinant human KLK7 expressed in Pichia pastoris X-33 using KHLY-pNA as substrate at pH 8 and 298 K measured every 60 secs for 600 secs
Chain of Kallikrein-7 (P49862 whole entry): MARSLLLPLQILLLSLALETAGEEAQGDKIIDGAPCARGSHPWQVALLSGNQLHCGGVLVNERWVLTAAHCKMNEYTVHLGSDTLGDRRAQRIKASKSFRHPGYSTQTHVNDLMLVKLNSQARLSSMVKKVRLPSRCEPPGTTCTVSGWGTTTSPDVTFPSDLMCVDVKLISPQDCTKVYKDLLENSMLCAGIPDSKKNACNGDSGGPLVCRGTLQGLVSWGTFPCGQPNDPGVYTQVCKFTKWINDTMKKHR

Coagulation factor XII = molecular target: T1, Coagulation factor XII (Homo sapiens, UniProt P00748); assay: Inhibition of human coagulation factor 12a using Ac-QRFR-pNA as substrate at pH 8 and 298 K measured every 60 secs for 600 secs
T1 sequence (P00748 whole entry): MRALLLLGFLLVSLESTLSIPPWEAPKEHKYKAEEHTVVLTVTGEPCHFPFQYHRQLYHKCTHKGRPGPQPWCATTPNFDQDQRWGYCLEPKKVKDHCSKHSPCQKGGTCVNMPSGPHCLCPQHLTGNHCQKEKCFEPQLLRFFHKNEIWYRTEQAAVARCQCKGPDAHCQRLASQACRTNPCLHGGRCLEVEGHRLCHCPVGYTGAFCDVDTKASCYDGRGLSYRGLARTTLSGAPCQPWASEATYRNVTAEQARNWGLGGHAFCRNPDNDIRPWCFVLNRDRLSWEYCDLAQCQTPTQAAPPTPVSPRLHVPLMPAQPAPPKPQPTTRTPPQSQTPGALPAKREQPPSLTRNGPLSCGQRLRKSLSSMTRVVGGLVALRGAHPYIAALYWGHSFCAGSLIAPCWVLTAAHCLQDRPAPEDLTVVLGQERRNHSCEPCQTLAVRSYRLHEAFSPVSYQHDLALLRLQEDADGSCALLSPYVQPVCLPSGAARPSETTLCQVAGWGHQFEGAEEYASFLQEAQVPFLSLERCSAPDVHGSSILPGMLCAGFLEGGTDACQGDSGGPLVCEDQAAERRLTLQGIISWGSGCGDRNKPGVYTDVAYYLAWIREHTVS

Chymotrypsin = Chymotrypsin (Homo sapiens, UniProt Q99895+P17538+P40313+Q6GPI1); assay: Inhibition of human chymotrypsin using Suc-AAPF-MCA as substrate at pH 8 and 298 K measured every 60 secs for 600 secs; format: protein assay
[1] = Inhibition of human cationic trypsin using Boc-VPR-MCA as substrate at pH 8 and 298 K measured every 60 secs for 600 secs
Prothrombin = Prothrombin (Homo sapiens, UniProt P00734); assay: Inhibition of human thrombin using Boc-VPR-MCA as substrate at pH 8 and 298 K measured every 60 secs for 600 secs
Chymase [2] = molecular target: T2, Chymase (Homo sapiens, UniProt P23946); assay: Inhibition of recombinant human chymase expressed in Pichia pastoris X-33 cells using NleTDY-pNA as substrate assessed as cleavage of pNA at pH 7.2 and 298 K by spectrophotometry analysis
T2 sequence (P23946 whole entry): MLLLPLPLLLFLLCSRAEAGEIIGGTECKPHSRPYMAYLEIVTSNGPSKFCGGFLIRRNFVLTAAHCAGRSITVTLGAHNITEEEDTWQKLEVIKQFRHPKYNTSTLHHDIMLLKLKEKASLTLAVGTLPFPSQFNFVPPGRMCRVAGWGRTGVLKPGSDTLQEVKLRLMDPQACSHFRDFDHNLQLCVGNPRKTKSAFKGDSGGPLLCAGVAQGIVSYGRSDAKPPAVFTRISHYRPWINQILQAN

Neutrophil elastase = molecular target: T3, Neutrophil elastase (Homo sapiens, UniProt P08246); assay: Inhibition of human neutrophil elastase using MeOSuc-AAPV-MCA as substrate at pH 7.2 and 298 K measured every 60 secs for 600 secs
T3 sequence (P08246 whole entry): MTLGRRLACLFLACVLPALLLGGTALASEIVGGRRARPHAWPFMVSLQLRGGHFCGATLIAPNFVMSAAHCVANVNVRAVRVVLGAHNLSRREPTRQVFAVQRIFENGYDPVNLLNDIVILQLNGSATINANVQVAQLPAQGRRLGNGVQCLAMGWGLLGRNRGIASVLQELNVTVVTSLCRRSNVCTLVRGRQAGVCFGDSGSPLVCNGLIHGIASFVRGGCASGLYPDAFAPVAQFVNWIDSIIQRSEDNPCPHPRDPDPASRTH

Cathepsin G = molecular target: T4, Cathepsin G (Homo sapiens, UniProt P08311); assay: Inhibition of human cathepsin G using Suc-AAPF-MCA as substrate at pH 7.2 and 298 K measured every 60 secs for 600 secs
T4 sequence (P08311 whole entry): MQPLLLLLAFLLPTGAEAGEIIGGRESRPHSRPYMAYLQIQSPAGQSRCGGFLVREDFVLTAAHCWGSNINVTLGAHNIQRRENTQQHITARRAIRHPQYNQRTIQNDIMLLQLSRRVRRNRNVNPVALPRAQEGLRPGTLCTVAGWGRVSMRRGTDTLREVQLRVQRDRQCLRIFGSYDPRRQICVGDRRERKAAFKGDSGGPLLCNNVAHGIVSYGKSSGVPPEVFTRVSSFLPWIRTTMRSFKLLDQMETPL

Chymase [3] = molecular target: T2, Chymase; assay: Inhibition of recombinant human chymase expressed in Pichia pastoris X-33 cells assessed as decrease in angiotensin 1 cleavage to angiotensin 2 incubated for 120 mins at 298 K by UPLC-MS analysis
Homo sapiens [4] = species on record: Homo sapiens; assay: Selectivity index, ratio of Ki for human cathepsin G using Suc-AAPF-MCA as substrate to Ki for recombinant human chymase expressed in Pichia pastoris X-33 cells using NleTDY-pNA as substrate
Homo sapiens [5] = species on record: Homo sapiens; assay: Selectivity index, ratio of Ki for human chymotrypsin using Suc-AAPF-MCA as substrate to Ki for recombinant human chymase expressed in Pichia pastoris X-33 cells using NleTDY-pNA as substrate

Row | SMILES | pIC50 (Kallikrein-7) | pIC50 (Coagulation factor XII) | IC50 (Chymotrypsin) [µM] | pIC50 [1] | pIC50 (Prothrombin) | pKi (Chymase [2]) | pIC50 (Neutrophil elastase) | pKi (Cathepsin G) | pIC50 (Chymase [3]) | Ki (Chymotrypsin) [nM] | Ratio Ki (Homo sapiens [4]) | Ratio Ki (Homo sapiens [5])
1 | N=C(N)NCCC[C@@H]1NC(=O)CNC(=O)[C@H](CC(=O)O)NC(=O)[C@@H]2CCCN2C(=O)[C@H](Cc2ccccc2)NC(=O)[C@@H]2CSSC[C@H](NC1=O)C(=O)N[C@@H](CCC(N)=O)C(=O)N[C@@H](Cc1ccc(I)cc1)C(=O)N[C@@H](CO)C(=O)N[C@@H](CCC(=O)O)C(=O)N1CCC[C@H]1C(=O)N1CCC[C@H]1C(=O)N[C@@H](CCC(=O)O)C(=O)N2 (cyclo(CFPDGRCQ[Phe(4-I)]SEPPE); disulfide 1-7) | < 5.00 | < 5.00 | > 10 | < 5.00 | < 5.00 | 7.72 | < 5.00 | 5.92 | 6.54 |  |  | 
2 | N=C(N)NCCC[C@@H]1NC(=O)CNC(=O)[C@H](CC(=O)O)NC(=O)[C@@H]2CCCN2C(=O)[C@H](Cc2ccccc2)NC(=O)[C@@H]2CSSC[C@H](NC1=O)C(=O)N[C@@H](CCC(N)=O)C(=O)N[C@@H](Cc1ccc(Cl)cc1)C(=O)N[C@@H](CO)C(=O)N[C@@H](CCC(=O)O)C(=O)N1CCC[C@H]1C(=O)N1CCC[C@H]1C(=O)N[C@@H](CCC(=O)O)C(=O)N2 (cyclo(CFPDGRCQ[Phe(4-Cl)]SEPPE); disulfide 1-7) | < 5.00 | < 5.00 |  | < 5.00 | < 5.00 | 8.74 | < 5.00 | 6.82 | 7.48 | 330 | 83 | 
3 | Cc1ccc(C[C@@H]2NC(=O)[C@H](CCC(N)=O)NC(=O)[C@@H]3CSSC[C@H](NC(=O)[C@H](CCC(=O)O)NC(=O)[C@@H]4CCCN4C(=O)[C@@H]4CCCN4C(=O)[C@H](CCC(=O)O)NC(=O)[C@H](CO)NC2=O)C(=O)N[C@@H](Cc2ccccc2)C(=O)N2CCC[C@H]2C(=O)N[C@@H](CC(=O)O)C(=O)NCC(=O)N[C@@H](CCCNC(=N)N)C(=O)N3)cc1 (cyclo(CFPDGRCQ[Phe(4-Me)]SEPPE); disulfide 1-7) | < 5.00 | < 5.00 |  | < 5.00 | < 5.00 | 8.66 | < 5.00 | 6.80 |  | 1500 | 72 to 80 | 180
4 | N=C(N)NCCC[C@@H]1NC(=O)CNC(=O)[C@H](CC(=O)O)NC(=O)[C@@H]2CCCN2C(=O)[C@H](Cc2ccccc2)NC(=O)[C@@H]2CSSC[C@H](NC1=O)C(=O)N[C@@H](CCC(N)=O)C(=O)N[C@@H](Cc1ccc(O)cc1)C(=O)N[C@@H](CO)C(=O)N[C@@H](CCC(=O)O)C(=O)N1CCC[C@H]1C(=O)N1CCC[C@H]1C(=O)N[C@@H](CCC(=O)O)C(=O)N2 (cyclo(CFPDGRCQYSEPPE); disulfide 1-7) |  |  |  |  |  | 8.18 |  | 7.27 |  | 2900 | 8.2 | 440
